Structures are written as SMILES. Where a SMILES comes first, the peptide text is derived from it.

Data on 1 molecule can be found in article PMC7036871, “Identification and Characterization of pantocin wh-1, a Novel Cyclic Polypeptide Produced by Pantoea dispersa W18” (Molecules, 2020).

A short description of data set [1]: Effect of heat on antibacterial activity. Format: physicochemical. Particulars: for Residual activity: compared with antimicrobial activity before the treatment. From the text:
Furthermore, the antibacterial activity of pantocin wh-1 also retained nearly 100% of the initial activity within a broad pH range (pH 2–12).
The effect of various enzymes, pH, and temperature on pantocin wh-1 activity was detected as described by J.-M. Chobert et al. with a slight modification. Proteinase K, trypsin, catalase, lysozyme, DNAse, and RNAse were used to test the antibacterial activity of pantocinwh-1. To analyze the effect of different pH values on the antibacterial activity of pantocin wh-1, the sample of pantocin wh-1 was exposed to buffer with a pH value of 2–12 for 1 h at 25 °C. The effect of temperature on the […], as well as at 121 °C for 15 min, and then detecting the bactericidal activity against M. smegmatis mc^2 155.

Data set [2] in a line: Antimicrobial spectrum, microporous dilution method. On the set-up: key: -: no inhibitory activity; +: Inhibit the growth of less than 10% amount of the initial bacteria; ++: Inhibit the growth of less than 50% amount of the initial bacteria; +++: Inhibit the growth of initial bacteria completely. In kind it is cell-based. The note with it: White aureus 8799, medium LB. The procedure: (§1) In this paper, the microporous dilution method was used to detect the antibacterial spectrum of pantocin wh-1 against Gram-negative and -positive bacteria. […] The time kill studies were determined over 8 h with M. smegmatis mc^2 155 being exposed to 0.5, 1, 2, or 4 × MIC of pantocin wh-1. […] At 2 × MIC and 4 × MIC, pantocin wh-1 caused bacterial eradication was completed approximately after 4 h.
(§2) The antibacterial activity of the pantocin wh-1 was detected by the microscale optical density assay (MODA) method. Briefly, 90 μL of the dilutions of pantocin wh-1, 100 μL 2 × 7H9 medium, and 10 μL of a log phase indicator strain were co-incubated in the 96-well plate at 37 °C for 48 h. For control groups, 90 μL of the dilutions of pantocin wh-1 were replaced by an equal volume of sterile water. After incubation, the 96 well microplate was measured by a microplate reader at a 600 nm wavelength (Biotek synergyH1, Biotek, Winooski, VT, USA). The amount of pantocin wh-1 produced by P. dispersa W18 was determined using two fold dilutions. […] The results were expressed in AU/mL. The MIC was defined as the last dilution of pantocin wh-1 sufficient to prevent indicator strain growth in vitro.

The next data set has as its system Bacillus cereus. The description is as above. In kind it is cell-based. Set-up: key: -: no inhibitory activity; +: Inhibit the growth of less than 10% amount of the initial bacteria; ++: Inhibit the growth of less than 50% amount of the initial bacteria; +++: Inhibit the growth of initial bacteria completely. Particulars: medium LB. The procedure: as §1, §2
Another data set relates to Dysgalactiae. The data set is described as above. In kind it is cell-based. Set-up: key: -: no inhibitory activity; +: Inhibit the growth of less than 10% amount of the initial bacteria; ++: Inhibit the growth of less than 50% amount of the initial bacteria; +++: Inhibit the growth of initial bacteria completely. The note with it: medium BHI. The procedure: as §1, §2
The subject of the next data set is P. aeruginosa. The data set is described as above. In kind it is cell-based. On the set-up: key: -: no inhibitory activity; +: Inhibit the growth of less than 10% amount of the initial bacteria; ++: Inhibit the growth of less than 50% amount of the initial bacteria; +++: Inhibit the growth of initial bacteria completely. Particulars: medium LB. The procedure: as §1, §2

For another data set, the system named is S. aureus 21A. The description is as above. On the set-up: key: -: no inhibitory activity; +: Inhibit the growth of less than 10% amount of the initial bacteria; ++: Inhibit the growth of less than 50% amount of the initial bacteria; +++: Inhibit the growth of initial bacteria completely. In kind it is cell-based. Particulars: medium LB. Here is the method:
as §1, §2

For a further data set, the system named is S. aureus AM025. Described as above. In kind it is cell-based. Set-up: key: -: no inhibitory activity; +: Inhibit the growth of less than 10% amount of the initial bacteria; ++: Inhibit the growth of less than 50% amount of the initial bacteria; +++: Inhibit the growth of initial bacteria completely. Particulars: S. aureus AM025, medium LB. Here is the method: as §1, §2

Another data set concerns S. aureus B30. Described as above. In kind it is cell-based. The note with it: S. aureus B30, medium LB. Set-up: key: -: no inhibitory activity; +: Inhibit the growth of less than 10% amount of the initial bacteria; ++: Inhibit the growth of less than 50% amount of the initial bacteria; +++: Inhibit the growth of initial bacteria completely. Here is the method:
as §1, §2

For the next data set, the system named is S. aureus B31. The data set is described as above. On the set-up: key: -: no inhibitory activity; +: Inhibit the growth of less than 10% amount of the initial bacteria; ++: Inhibit the growth of less than 50% amount of the initial bacteria; +++: Inhibit the growth of initial bacteria completely. Particulars: S. aureus B31, medium LB. In kind it is cell-based. The procedure:
as §1, §2

In a further data set the test system is S. pyogenes. Described as above. In kind it is cell-based. On the set-up: key: -: no inhibitory activity; +: Inhibit the growth of less than 10% amount of the initial bacteria; ++: Inhibit the growth of less than 50% amount of the initial bacteria; +++: Inhibit the growth of initial bacteria completely. The note with it: medium BHI. Here is the method: as §1, §2

The next data set deals with E. coli O157. The data set is described as above. In kind it is cell-based. On the set-up: key: -: no inhibitory activity; +: Inhibit the growth of less than 10% amount of the initial bacteria; ++: Inhibit the growth of less than 50% amount of the initial bacteria; +++: Inhibit the growth of initial bacteria completely. Particulars: E. coli O157, medium LB.

`CSCC[C@@H]1NC(=O)[C@H](C(C)C)NC(=O)[C@H](Cc2c[nH]c3ccccc23)NC(=O)[C@H](C(C)C)NC(=O)[C@H](C)NC(=O)[C@H](CS)NC(=O)[C@H](CC(N)=O)NC(=O)[C@H](Cc2ccccc2)NC(=O)CNC(=O)[C@H](Cc2ccc(O)cc2)NC(=O)CNC(=O)[C@H](Cc2ccccc2)NC(=O)[C@H](C(C)C)NC(=O)[C@H](Cc2ccc(O)cc2)NC(=O)[C@H](CS)NC(=O)[C@H](Cc2c[nH]c3ccccc23)NC1=O` [pantocin wh-1] (cyclo(AVWVMWCYVFGYGFNC)): the figures for the Residual activity in [1] (Heat 50℃/ 30 min), in data set [1] (Heat 100℃/ 30 min) and in data set [1] (Heat 121℃/ 15 min) were 100%, 90% and 72%, respectively. This molecule also came in with a retained activity in data set [1] (autoclaving at 121 °C for 30 min) of 72%. Further, the “heat stability” value in [1] (incubation at 100 °C for 30 min) is “heat stable”. In addition, the Inhibition activity entry (in [2]; in the data set on Bacillus cereus; with Dysgalactiae; in the data set on P. aeruginosa; in the data set on S. aureus 21A; with S. aureus AM025) was “-” each time. Moreover, the Inhibition activity entry in the data set on S. aureus B30, in the data set on S. aureus B31, in the data set with S. pyogenes and in the data set on E. coli O157 was “-” each time.
